In PubChem BioAssay (NCI):
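In this assay, cells in 96-well plates receive the compound at five concentrations for 48 hours. Endpoints are linearly interpolated between the surrounding concentrations. TGI denotes the concentration required for complete inhibition of growth.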

Legend:
Test in all cases: NCI tumour cell line growth inhibition, 48 h
[1] = tested on: RXF 393 renal
[2] = tested on: SK-MEL-2 melanoma
[3] = tested on: SW-620 colon
[4] = tested on: CAKI-1 renal
[5] = tested on: HT29 colon
[6] = tested on: PC-3 prostate
[7] = tested on: 786-0 renal
[8] = tested on: OVCAR-5 ovarian
[9] = tested on: UACC-62 melanoma
[10] = tested on: OVCAR-4 ovarian
[11] = tested on: SNB-75 CNS
[12] = tested on: MALME-3M melanoma
[13] = tested on: SN12C renal
[14] = tested on: SK-OV-3 ovarian
[15] = tested on: HL-60(TB) leukemia
[16] = tested on: TK-10 renal
[17] = tested on: OVCAR-3 ovarian
[18] = tested on: SK-MEL-5 melanoma
[19] = tested on: KM12 colon
[20] = tested on: NCI-H226 lung
[21] = tested on: EKVX NSCLC
[22] = tested on: HOP-62 NSCLC
[23] = tested on: RPMI-8226 leukemia
[24] = tested on: SF-295 CNS
[25] = tested on: T-47D breast
[26] = tested on: M14 melanoma
[27] = tested on: SK-MEL-28 melanoma
[28] = tested on: NCI-H522 lung
[29] = tested on: BT-549 breast
[30] = tested on: LOX IMVI melanoma
[31] = tested on: ACHN renal
[32] = tested on: NCI-H460 lung
[33] = tested on: OVCAR-8 ovarian
[34] = tested on: SNB-19 CNS
[35] = tested on: HOP-92 NSCLC
[36] = tested on: SF-268 CNS
[37] = tested on: U251 CNS
[38] = tested on: NCI/ADR-RES ovarian
[39] = tested on: COLO 205 colon
[40] = tested on: DU-145 prostate
[41] = tested on: UACC-257 melanoma
[42] = tested on: MDA-MB-435
[43] = tested on: CCRF-CEM leukemia
[44] = tested on: MDA-MB-231 breast
[45] = tested on: A549 NSCLC
[46] = tested on: HCT-116 colon
[47] = tested on: NCI-H23 lung
[48] = tested on: A498 renal
[49] = tested on: HCT-15 colon
[50] = tested on: UO-31 renal
[51] = tested on: MDA-N
[52] = tested on: SF-539 CNS
[53] = tested on: MOLT-4 leukemia
[54] = tested on: HS 578T breast
[55] = tested on: IGROV1 ovarian
[56] = tested on: K-562 leukemia
[57] = tested on: SR leukemia
[58] = tested on: MCF7 breast
[59] = tested on: HCC-2998 colon

CCOC(=O)c1ccc(-c2cc(C)[nH]n2)[nH]1
TGI [1]: > 100 µM | TGI [2]: > 100 µM | TGI [3]: > 100 µM | TGI [4]: > 100 µM | TGI [5]: > 100 µM | TGI [6]: > 100 µM | TGI [7]: > 100 µM | TGI [8]: > 100 µM | TGI [9]: > 100 µM | TGI [10]: > 100 µM | TGI [11]: > 100 µM | TGI [12]: > 100 µM | TGI [13]: > 100 µM | TGI [14]: > 100 µM | TGI [15]: > 100 µM | TGI [16]: > 100 µM | TGI [17]: > 100 µM | TGI [18]: > 100 µM | TGI [19]: > 100 µM | TGI [20]: > 100 µM | TGI [21]: > 100 µM | TGI [22]: > 100 µM | TGI [23]: > 100 µM | TGI [24]: > 100 µM | TGI [25]: > 100 µM | TGI [26]: > 100 µM | TGI [27]: > 100 µM | TGI [28]: > 100 µM | TGI [29]: > 100 µM | TGI [30]: > 100 µM | TGI [31]: > 100 µM | TGI [32]: > 100 µM | TGI [33]: > 100 µM | TGI [34]: > 100 µM | TGI [35]: > 100 µM | TGI [36]: > 100 µM | TGI [37]: > 100 µM | TGI [38]: > 100 µM | TGI [39]: > 100 µM | TGI [40]: > 100 µM | TGI [41]: > 100 µM | TGI [42]: > 100 µM | TGI [43]: > 100 µM | TGI [44]: > 100 µM | TGI [45]: > 100 µM | TGI [46]: > 100 µM | TGI [47]: > 100 µM | TGI [48]: > 100 µM | TGI [49]: > 100 µM | TGI [50]: > 100 µM | TGI [51]: > 100 µM | TGI [52]: > 100 µM

C/C(O)=C/c1nc2ccccc2nc1/C=C(/C)O
TGI [53]: 46.5 µM | TGI [1]: 65.2 µM | TGI [2]: 40.1 µM | TGI [3]: > 100 µM | TGI [54]: 67.5 µM | TGI [4]: > 100 µM | TGI [5]: 43.3 µM | TGI [6]: > 100 µM | TGI [7]: 45.8 µM | TGI [8]: 79.9 µM | TGI [9]: 45.4 µM | TGI [10]: 48.5 µM | TGI [11]: 63.3 µM | TGI [12]: 50.7 µM | TGI [13]: 97.7 µM | TGI [14]: > 100 µM | TGI [15]: 56.4 µM | TGI [16]: 42.2 µM | TGI [17]: 40.7 µM | TGI [18]: 35.4 µM | TGI [19]: 57.3 µM | TGI [20]: 61.3 µM | TGI [55]: 54.7 µM | TGI [56]: 81 µM | TGI [21]: 71.5 µM | TGI [22]: 67.1 µM | TGI [23]: 56.5 µM | TGI [57]: 77.5 µM | TGI [24]: 67.5 µM | TGI [25]: 36.9 µM | TGI [26]: 44.4 µM | TGI [27]: > 100 µM | TGI [28]: 27.7 µM | TGI [29]: > 100 µM | TGI [30]: 56.4 µM | TGI [31]: 47.7 µM | TGI [32]: 34.4 µM | TGI [33]: 83.3 µM | TGI [34]: > 100 µM | TGI [35]: 66.2 µM | TGI [36]: 64.6 µM | TGI [37]: 50.9 µM | TGI [38]: 93.2 µM | TGI [39]: 47.5 µM | TGI [40]: 70.4 µM | TGI [41]: 41 µM | TGI [42]: 59.8 µM | TGI [43]: 45.9 µM | TGI [44]: 53 µM | TGI [45]: 51.3 µM | TGI [46]: 39.3 µM | TGI [47]: > 100 µM | TGI [48]: 67.4 µM | TGI [49]: > 100 µM | TGI [50]: 56 µM | TGI [51]: > 100 µM | TGI [52]: 99.3 µM

O=S(=O)(c1ccccc1)n1c(C(O)c2ccncc2)cc2ccccc21 (stereo unspecified)
TGI [53]: > 100 µM | TGI [1]: > 100 µM | TGI [2]: > 100 µM | TGI [3]: > 100 µM | TGI [4]: > 100 µM | TGI [5]: > 100 µM | TGI [6]: > 100 µM | TGI [7]: > 100 µM | TGI [8]: > 100 µM | TGI [9]: 98.9 µM | TGI [10]: > 100 µM | TGI [11]: > 100 µM | TGI [13]: > 100 µM | TGI [14]: > 100 µM | TGI [16]: 79.7 µM | TGI [17]: > 100 µM | TGI [18]: 35.4 µM | TGI [19]: > 100 µM | TGI [20]: > 100 µM | TGI [55]: > 100 µM | TGI [56]: > 100 µM | TGI [21]: > 100 µM | TGI [22]: > 100 µM | TGI [23]: > 100 µM | TGI [57]: > 100 µM | TGI [24]: > 100 µM | TGI [25]: > 100 µM | TGI [58]: 40.5 µM | TGI [26]: > 100 µM | TGI [27]: > 100 µM | TGI [29]: > 100 µM | TGI [30]: > 100 µM | TGI [31]: > 100 µM | TGI [32]: > 100 µM | TGI [33]: > 100 µM | TGI [34]: > 100 µM | TGI [35]: > 100 µM | TGI [37]: > 100 µM | TGI [38]: > 100 µM | TGI [39]: > 100 µM | TGI [40]: > 100 µM | TGI [41]: 38.9 µM | TGI [42]: > 100 µM | TGI [43]: > 100 µM | TGI [44]: > 100 µM | TGI [45]: > 100 µM | TGI [46]: > 100 µM | TGI [47]: > 100 µM | TGI [48]: > 100 µM | TGI [49]: > 100 µM | TGI [50]: 44.7 µM | TGI [51]: > 100 µM | TGI [52]: > 100 µM

CC1(C)O[C@H](C(=O)O)[C@@H](C(=O)O)O1
TGI [53]: > 100 µM | TGI [1]: > 100 µM | TGI [2]: > 100 µM | TGI [3]: > 100 µM | TGI [54]: > 100 µM | TGI [4]: > 100 µM | TGI [5]: > 100 µM | TGI [6]: > 100 µM | TGI [7]: > 100 µM | TGI [8]: > 100 µM | TGI [9]: > 100 µM | TGI [10]: > 100 µM | TGI [11]: > 100 µM | TGI [12]: > 100 µM | TGI [13]: > 100 µM | TGI [14]: > 100 µM | TGI [16]: > 100 µM | TGI [18]: > 100 µM | TGI [19]: > 100 µM | TGI [20]: > 100 µM | TGI [55]: > 100 µM | TGI [56]: > 100 µM | TGI [21]: > 100 µM | TGI [22]: > 100 µM | TGI [23]: > 100 µM | TGI [57]: > 100 µM | TGI [24]: > 100 µM | TGI [25]: > 100 µM | TGI [58]: > 100 µM | TGI [26]: > 100 µM | TGI [27]: > 100 µM | TGI [28]: > 100 µM | TGI [30]: > 100 µM | TGI [31]: > 100 µM | TGI [32]: > 100 µM | TGI [33]: > 100 µM | TGI [34]: > 100 µM | TGI [35]: > 100 µM | TGI [36]: > 100 µM | TGI [37]: > 100 µM | TGI [38]: > 100 µM | TGI [39]: > 100 µM | TGI [59]: > 100 µM | TGI [40]: > 100 µM | TGI [41]: > 100 µM | TGI [42]: > 100 µM | TGI [43]: > 100 µM | TGI [44]: > 100 µM | TGI [45]: > 100 µM | TGI [46]: > 100 µM | TGI [48]: > 100 µM | TGI [49]: > 100 µM | TGI [51]: > 100 µM | TGI [52]: > 100 µM
